Data: ChEMBL document CHEMBL4840338, “Cudraflavone C from Artocarpus hirsutus as a Promising Inhibitor of Pathogenic, Multidrug-Resistant S. aureus, Persisters, and Biofilms: A New Insight into a Rational Explanation of Traditional Wisdom” (J Nat Prod, 2021)
≈ marks a conversion by molar mass, not a printed value. Calls of active or inactive are those of the source. The rule behind the calls is not given here.

How the values were obtained:
[1] = system: Staphylococcus aureus; experiment: Bactericidal activity against Staphylococcus aureus ATCC 29213 assessed as reduction in bacterial load at 10X MIC preincubated for 1 hr followed by subculturing on TSA plate for 18 to 20 hrs by time-kill assay; type: functional; conditions: time 19-21 hrs
[2] = system: Staphylococcus aureus; experiment: Antibacterial activity against vancomycin-resistant Staphylococcus aureus VRS1 assessed as bacterial growth inhibition incubated for 16 to 18 hrs by broth microdilution method; type: functional; conditions: time 16-18 hrs
[3] = system: Staphylococcus aureus; experiment: Bactericidal activity against Staphylococcus aureus ATCC 29213 assessed as reduction in bacterial load at 10X MIC preincubated for 6 hrs followed by subculturing on TSA plate for 18 to 20 hrs by time-kill assay; type: functional; set-up: scale not given: the % may be the effect or the level left; conditions: time 24-26 hrs
[4] = system: Staphylococcus aureus; experiment: Antibacterial activity against methicillin-resistant Staphylococcus aureus NRS 10119 assessed as bacterial growth inhibition incubated for 16 to 18 hrs by broth microdilution method; type: functional; conditions: time 16-18 hrs
[5] = system: Staphylococcus aureus; experiment: Antibacterial activity against Staphylococcus aureus ATCC 29213 assessed as fractional inhibitory concentration in presence of meropenem incubated for 24 hrs by checkerboard assay; type: functional
[6] = system: Staphylococcus aureus; experiment: Antibiofilm activity against Staphylococcus aureus ATCC 29213 assessed as reduction in preformed bacterial biofilm at 1XMIC incubated for 24 hrs by crystal violet staining based microtiter plate reader assay; type: functional
[7] = system: Staphylococcus aureus; experiment: Antibacterial activity against methicillin-resistant Staphylococcus aureus NRS 10129 assessed as bacterial growth inhibition incubated for 16 to 18 hrs by broth microdilution method; type: functional; conditions: time 16-18 hrs
[8] = system: Staphylococcus aureus; experiment: Antibacterial activity against Staphylococcus aureus ATCC 29213 assessed as time for increase by 1 log10CFU at 1XMIC incubated for 1 hr followed by drug wash-out and measured every single 1 hr; type: functional
[9] = system: Acinetobacter baumannii; experiment: Antibacterial activity against Acinetobacter baumannii BAA-1605 ssessed as bacterial growth inhibition in presence of outermembrane permeabilizer, PMBN incubated for 16 to 18 hrs by broth microdilution method; type: functional; conditions: time 16-18 hrs
[10] = system: Staphylococcus aureus; experiment: Antibacterial activity against methicillin-resistant Staphylococcus aureus NRS 10192 assessed as bacterial growth inhibition incubated for 16 to 18 hrs by broth microdilution method; type: functional; conditions: time 16-18 hrs
[11] = system: Staphylococcus aureus; experiment: Antibacterial activity against methicillin-resistant Staphylococcus aureus NRS 10198 assessed as bacterial growth inhibition incubated for 16 to 18 hrs by broth microdilution method; type: functional; conditions: time 16-18 hrs
[12] = system: Staphylococcus aureus; experiment: Antibacterial activity against vancomycin-resistant Staphylococcus aureus VRS4 assessed as bacterial growth inhibition incubated for 16 to 18 hrs by broth microdilution method; type: functional; conditions: time 16-18 hrs
[13] = system: Staphylococcus aureus; experiment: Antibacterial activity against Staphylococcus aureus ATCC 29213 assessed as fractional inhibitory concentration in presence of vancomycin incubated for 24 hrs by checkerboard assay; type: functional
[14] = system: Staphylococcus aureus; experiment: Antibacterial activity against methicillin-resistant Staphylococcus aureus NRS 10194 assessed as bacterial growth inhibition incubated for 16 to 18 hrs by broth microdilution method; type: functional; conditions: time 16-18 hrs
[15] = system: Enterococcus; experiment: Antibacterial activity against vancomycin-susceptible Enterococcus NR 31885 assessed as bacterial growth inhibition incubated for 16 to 18 hrs by broth microdilution method; type: functional; conditions: time 16-18 hrs
[16] = system: Staphylococcus aureus; experiment: Antibiofilm activity against Staphylococcus aureus ATCC 29213 assessed as reduction in preformed bacterial biofilm at 10XMIC incubated for 24 hrs by crystal violet staining based microtiter plate reader assay; type: functional
[17] = system: Staphylococcus aureus; experiment: Synergistic antibacterial activity against multidrug-resistant methicillin resistant Staphylococcus aureus NRS 10119 assessed as reduction in bacterial load at 1X MIC preincubated for 24 hrs in presence of gentamycin followed by subculturing on TSA plate for 18 to 20 hrs by time-kill assay; type: functional; conditions: time 42-44 hrs
[18] = system: Staphylococcus aureus; experiment: Antibacterial activity against Staphylococcus aureus ATCC 29213 assessed as bacterial growth inhibition in presence of minocycline incubated for 24 hrs by checkerboard assay; type: functional
[19] = system: Staphylococcus aureus; experiment: Antibacterial activity against Staphylococcus aureus ATCC 29213 infected in mouse J774.A1 assessed as reduction in intracellular bacterial burden at 5XMIC incubated for 24 hrs followed by replating on TSA plate for 24 hrs by intracellular killing assay; type: functional; conditions: time 48 hrs
[20] = system: Staphylococcus aureus; experiment: Antibacterial activity against Staphylococcus aureus ATCC 29213 assessed as reduction in bacterial growth at sub-MIC incubated for more than 40 days; type: functional, organism-based; conditions: time day >40
[21] = system: Enterococcus; experiment: Antibacterial activity against vancomycin-susceptible Enterococcus NR 31888 assessed as bacterial growth inhibition incubated for 16 to 18 hrs by broth microdilution method; type: functional; conditions: time 16-18 hrs
[22] = system: Staphylococcus aureus; experiment: Antibacterial activity against methicillin-resistant Staphylococcus aureus NRS 10193 assessed as bacterial growth inhibition incubated for 16 to 18 hrs by broth microdilution method; type: functional; conditions: time 16-18 hrs
[23] = system: Enterococcus; experiment: Antibacterial activity against vancomycin-susceptible Enterococcus NR 31884 assessed as bacterial growth inhibition incubated for 16 to 18 hrs by broth microdilution method; type: functional; conditions: time 16-18 hrs
[24] = system: Staphylococcus aureus; experiment: Antibacterial activity against Staphylococcus aureus ATCC 29213 assessed as fractional inhibitory concentration in presence of minocycline incubated for 24 hrs by checkerboard assay; type: functional
[25] = Selectivity index, ratio of CC50 for cytotoxicity against African green monkey Vero cells to MIC for antibacterial activity against Staphylococcus aureus ATCC 29213; type: toxicity, cell-based; conditions: read-out: Selectivity Index
[26] = system: Staphylococcus aureus; experiment: Antibacterial activity against Staphylococcus aureus ATCC 29213 assessed as bacterial growth inhibition in presence of levofloxacin incubated for 24 hrs by checkerboard assay; type: functional
[27] = system: Enterococcus; experiment: Antibacterial activity against vancomycin-resistant Enterococcus NR 31909 assessed as bacterial growth inhibition incubated for 16 to 18 hrs by broth microdilution method; type: functional; conditions: time 16-18 hrs
[28] = system: Staphylococcus aureus; experiment: Antibacterial activity against methicillin-resistant Staphylococcus aureus NRS 10186 assessed as bacterial growth inhibition incubated for 16 to 18 hrs by broth microdilution method; type: functional; conditions: time 16-18 hrs
[29] = system: Staphylococcus aureus; experiment: Antibacterial activity against Staphylococcus aureus ATCC 29213 assessed as fractional inhibitory concentration in presence of linezolid incubated for 24 hrs by checkerboard assay; type: functional
[30] = system: Staphylococcus aureus; experiment: Antibacterial activity against Staphylococcus aureus ATCC 29213 assessed as fractional inhibitory concentration in presence of rifampicin incubated for 24 hrs by checkerboard assay; type: functional
[31] = system: Staphylococcus aureus; experiment: Antibacterial activity against Staphylococcus aureus ATCC 29213 assessed as time for post-antibiotic effect at 10XMIC incubated for 1 hr followed by drug wash-out and measured every single 1 hr; type: functional
[32] = system: Staphylococcus aureus; experiment: Antibacterial activity against Staphylococcus aureus ATCC 29213 assessed as bacterial growth inhibition in presence of meropenem incubated for 24 hrs by checkerboard assay; type: functional
[33] = system: Staphylococcus aureus; experiment: Antibacterial activity against Staphylococcus aureus ATCC 29213 assessed as time for increase by 1 log10CFU at 10XMIC incubated for 1 hr followed by drug wash-out and measured every single 1 hr; type: functional
[34] = system: Staphylococcus aureus; experiment: Antibacterial activity against methicillin-resistant Staphylococcus aureus NRS 10100 assessed as bacterial growth inhibition incubated for 16 to 18 hrs by broth microdilution method; type: functional; conditions: time 16-18 hrs
[35] = system: Staphylococcus aureus; experiment: Antibacterial activity against methicillin-resistant Staphylococcus aureus NRS 10191 assessed as bacterial growth inhibition incubated for 16 to 18 hrs by broth microdilution method; type: functional; conditions: time 16-18 hrs
[36] = system: Staphylococcus aureus; experiment: Antibacterial activity against Staphylococcus aureus ATCC 29213 assessed as bacterial growth inhibition in presence of gentamycin incubated for 24 hrs by checkerboard assay; type: functional
[37] = system: Enterococcus; experiment: Antibacterial activity against vancomycin-resistant Enterococcus NR 31912 assessed as bacterial growth inhibition incubated for 16 to 18 hrs by broth microdilution method; type: functional; conditions: time 16-18 hrs

CC(C)=CCc1c(O)cc2oc(-c3ccc(O)cc3O)c(CC=C(C)C)c(=O)c2c1O [CUDRAFLAVONE C]
Activity [1]: 5 log10CFU/ml | MIC [2]: 4 µg/mL (≈ 9.47 µM) | Activity [3]: 100% | MIC [4]: 4 µg/mL (≈ 9.47 µM) | FIC [5]: 1.5 | inhibition (INH) [6]: 8% | MIC [7]: 4 µg/mL (≈ 9.47 µM) | Time [8]: 4 h | MIC [9]: 4 µg/mL | MIC [10]: 4 µg/mL (≈ 9.47 µM) | MIC [11]: 4 µg/mL (≈ 9.47 µM) | MIC [12]: 4 µg/mL (≈ 9.47 µM) | FIC [13]: 1.5 | MIC [14]: 4 µg/mL (≈ 9.47 µM) | MIC [15]: 4 µg/mL (≈ 9.47 µM) | inhibition (INH) [16]: 30.4% | Activity [17]: 6 log10CFU/ml | MIC [18]: 2 µg/mL | Activity [19]: 2 log10CFU/ml | Activity [20]: Active | MIC [21]: 4 µg/mL (≈ 9.47 µM) | MIC [22]: 4 µg/mL (≈ 9.47 µM) | MIC [23]: 4 µg/mL (≈ 9.47 µM) | FIC [24]: 1.5 | selectivity ratio [25]: 25 | MIC [26]: 2 µg/mL | MIC [27]: 4 µg/mL (≈ 9.47 µM) | MIC [28]: 4 µg/mL (≈ 9.47 µM) | FIC [29]: 1.5 | FIC [30]: 1.5 | Time [31]: >22 h | MIC [32]: 2 µg/mL | Time [33]: >24 h | MIC [34]: 4 µg/mL (≈ 9.47 µM) | MIC [35]: 4 µg/mL (≈ 9.47 µM) | MIC [36]: 0.06 µg/mL | MIC [37]: 4 µg/mL (≈ 9.47 µM)
